The target of series [1] is T1, UGT1A1 (Rattus norvegicus, UniProt Q64550).
T1 sequence (Q64550 30-535): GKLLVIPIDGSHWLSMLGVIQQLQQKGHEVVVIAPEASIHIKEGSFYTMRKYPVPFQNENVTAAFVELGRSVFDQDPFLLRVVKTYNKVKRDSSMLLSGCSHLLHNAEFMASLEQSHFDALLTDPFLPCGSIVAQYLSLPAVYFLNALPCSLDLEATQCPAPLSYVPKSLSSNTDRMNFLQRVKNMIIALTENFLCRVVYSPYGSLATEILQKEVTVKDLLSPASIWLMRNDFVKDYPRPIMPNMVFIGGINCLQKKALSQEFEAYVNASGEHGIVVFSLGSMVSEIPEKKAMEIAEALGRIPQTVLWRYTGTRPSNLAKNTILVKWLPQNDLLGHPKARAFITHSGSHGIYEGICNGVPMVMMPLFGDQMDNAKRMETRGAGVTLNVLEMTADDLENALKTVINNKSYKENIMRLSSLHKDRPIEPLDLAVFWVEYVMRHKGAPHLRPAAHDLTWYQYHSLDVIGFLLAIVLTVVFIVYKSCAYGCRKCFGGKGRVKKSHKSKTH
The series can be described thus: UGT1A1 inhibition: bilirubin glucuronidation in rat liver microsomes (RLM), enzyme inhibition kinetics. Particulars: for Mode of inhibition: Lineweaver-Burk and Dixon plots. The procedure: UGT1A1 activity assays were conducted at 37 °C in a shaking water bath[41]. Incubation mixtures (final volume, 0.2 mL) contained 0.5 mg/mL RLM, 0.1 M Tris-HCl (pH 7.4), 5 mM MgCl2, 5 mM D-saccharic acid 1,4-lactone, 3.5 mM UDPGA, and 50 mg/g protein alamethicin. Bilirubin (as a UGT1A1 substrate) and the test samples were dissolved in 100% dimethylsulfoxide (DMSO) immediately before being added to the incubation mixtures. […] The reaction was initiated by adding UDPGA after a 5-min pre-incubation at 37 °C; it was terminated after 10 min by adding 0.6 mL of ice-cold methanol: acetonitrile (1:2) containing 200 mM ascorbic acid. Proteins were precipitated by centrifugation at 13,000 × g for 30 min at 4 °C prior, and the supernatants were analyzed by UPLC.The assays were done in triplicates respectively.
Bilirubin glucuronidation was evaluated in the presence of various concentrations of bilirubin and potential inhibitors, as described above. Samples were analyzed in triplicate to determine their inhibition constants (Ki). For assays with inhibitors, the bilirubin concentration was 0.12 to 1.37 μM.
The inhibition kinetic type and parameters were determined by fitting the reaction velocities of different concentrations of test components (inhibitors) and bilirubin (substrate). Lineweaver–Burk and Dixon fitting equations were employed to determine the inhibition type, and the second plot (drawn using the slope of lines in the Lineweaver–Burk plot versus inhibitor concentrations) was used to calculate the Ki values. The results were analyzed using GraphPad Prism 5 software (GraphPad Inc., San Diego, CA, USA)[48]. […] The goodness-of-fit of the inhibition models was estimated using the F statistic, R^2 value, parameter standard error estimates, and 95% confidence intervals.
(Microsomes from liver hold many membrane-bound enzymes, among them those of drug oxidation.)

The next series deals with rUGT1A1. The conditions noted are these: rUGT1A1 system, competitive; cited from earlier work.
Series [2] deals with UGT1A1. Particulars: HLM system, competitive; cited from earlier work.
The target in series [3] is T1, UGT1A1. Particulars: RLM system, competitive; cited from earlier work.
Where [4] appears, read: Ki value, bilirubin substrate, extract concentration based on emodin content.

Read-outs that look alike come from different tables or passages of the source.

The values below come from article PMC5738440, “Identification and characterization of the structure–activity relationships involved in UGT1A1 inhibition by anthraquinone and dianthrone constituents of Polygonum multiflorum” (Scientific Reports, 2017).

In general, Ki refers to a measure of affinity in units of concentration, obtained from inhibition or displacement.

For `Cc1cc(O)c2c(c1)C(C1c3cc(C)cc(O)c3C(=O)c3c(O)cc(O)cc31)c1cc(O)cc(O)c1C2=O` (stereo not drawn) [Cis-emodin dianthrones], on UGT1A1 [1] (setting [4]), the affinity corresponds to a Ki of 0.863 µM.
For the compound `Cc1cc(O)c2c(c1)C(C1c3cc(C)cc(O)c3C(=O)c3c(OC4OC(CO)C(O)C(O)C4O)cc(O)cc31)c1cc(O)cc(O)c1C2=O` (stereo not drawn) [Polygonumnolide C2], on UGT1A1 [1] (setting [4]), the affinity corresponds to a Ki of 4.29 µM. Also, on UGT1A1 [1], the Mode of inhibition entry is given as “Non-Competitive inhibition”. Moreover, on UGT1A1 [1] (rat, pH 7.4, probe bilirubin (0.12-1.37 μM), Ki value, bilirubin substrate, extract concentration based on emodin content), the Ki at 10 min came to 4.22 µM.
On UGT1A1 [1] (setting [4]), `O=C1c2cc(O)cc(O)c2C(=O)c2c(O)cc(CO)cc21` [Citreorosein] displayed a Ki of 18.6 µM. Further, the Mode of inhibition entry at UGT1A1 [1] is given as “Mixed Type inhibition”.
For `COc1cc(O)c2c(c1)C(=O)c1cc(C)cc(O)c1C2=O` [Physcion], on UGT1A1 [1] (setting [4]), the Ki stood at 94.7 µM. Further, the Mode of inhibition entry at UGT1A1 [1] is given as “Non-Competitive inhibition”.
As to `Cc1cc(O)c2c(c1)C(=O)c1cc(O)cc(O)c1C2=O` [Emodin], the inhibitory constant (Ki) on rUGT1A1 was 4.85 ± 0.528 µM; in the series on UGT1A1 [2] it was 5.4 ± 0.956 µM; on UGT1A1 [3], 10 ± 0.611 µM; at UGT1A1 [1] (setting [4]), 10 µM. Besides, the Mode of inhibition entry on UGT1A1 [1] is “Competitive inhibition”.
With `O=C(O)c1cc(O)c2c(c1)C(=O)c1cccc(O)c1C2=O` [Rhein], at UGT1A1 [1] (setting [4]), affinity was put at a Ki of 127 µM. For the same compound, on UGT1A1 [1], the Mode of inhibition entry was “Mixed Type inhibition”.
For `Cc1cc(O)c2c(c1)C(C1c3cc(C)cc(O)c3C(=O)c3c(O)cc(O)cc31)c1cc(O)cc(O)c1C2=O` (stereo not drawn) [Trans-emodin dianthrones] the same measures were 1.08 µM and “Competitive inhibition”.
`Cc1cc(O)c2c(c1)C(C1c3cc(C)cc(O)c3C(=O)c3c(OC4OC(CO)C(O)C(O)C4O)cc(O)cc31)c1cc(O)cc(O)c1C2=O` (stereo not drawn) [Polygonumnolide C3]: the affinity on UGT1A1 [1] (setting [4]) corresponds to a Ki of 12.9 µM. Moreover, the Mode of inhibition entry at UGT1A1 [1] is given as “Non-Competitive inhibition”.
Compound `Cc1cc(O)c2c(c1)C(C1c3cc(C)cc(O)c3C(=O)c3c(OC4OC(CO)C(O)C(O)C4O)cc(O)cc31)c1cc(O)cc(O)c1C2=O` (stereo not drawn) [Polygonumnolide C4] registered a Ki on UGT1A1 [1] (setting [4]) of 77.4 µM. Moreover, the Mode of inhibition result on UGT1A1 [1] is on record as “Un-Competitive inhibition”.
